Type in all cases: biochemical
The target of assay [1] is T1, ΔPH-Akt2 (Homo sapiens, UniProt P31751).
T1 construct: PCR was performed using the full length Akt2 gene as template; biotin tag (from pS2neo vector); made in house; host or cells: Drosophila S2 cells
Kind of assay: Akt kinase assay, GSK3 peptide substrate, Akt2 delta PH. The following applies: pleckstrin homology domain deleted Akt2, GSK3 peptide substrate.

The target of assay [2] is T2, Human Akt3 (Homo sapiens, UniProt Q9Y243).
T2 construct: a middle T tag was added to the 5′ end of the full length Akt3 clone; biotin tag (from pS2neo vector); made in house; host or cells: Drosophila S2 cells
T2 sequence (Q9Y243 whole entry): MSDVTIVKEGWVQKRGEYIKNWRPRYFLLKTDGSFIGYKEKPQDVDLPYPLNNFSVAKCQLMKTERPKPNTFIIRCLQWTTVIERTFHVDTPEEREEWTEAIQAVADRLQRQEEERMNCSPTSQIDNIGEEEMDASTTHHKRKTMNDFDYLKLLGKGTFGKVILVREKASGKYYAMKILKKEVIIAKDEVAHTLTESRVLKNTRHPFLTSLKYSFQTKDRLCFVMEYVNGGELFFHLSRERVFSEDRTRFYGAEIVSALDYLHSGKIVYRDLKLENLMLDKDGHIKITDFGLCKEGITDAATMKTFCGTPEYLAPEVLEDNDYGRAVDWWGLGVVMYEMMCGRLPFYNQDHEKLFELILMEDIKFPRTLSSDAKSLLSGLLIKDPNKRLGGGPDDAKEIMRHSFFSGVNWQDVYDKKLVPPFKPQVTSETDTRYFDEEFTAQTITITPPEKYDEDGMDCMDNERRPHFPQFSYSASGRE
Kind of assay: Akt kinase assay, GSK3 peptide substrate, Akt3. The note with it: activated full length Akt3, GSK3 peptide substrate. The method, then: (§1) Akt and Akt pleckstrin homology domain deletions were activated (Alessi et al. Current Biology 7:261-269) in a reaction containing 10 nM PDK1 (Upstate Biotechnology, Inc.), lipid vesicles (10 μM phosphatidylinositol-3,4,5-trisphosphate—Metreya, Inc, 100 μM phosphatidylcholine and 100 μM phosphatidylserine—Avanti Polar lipids, Inc.) and activation buffer (50 mM Tris pH7.4, 1.0 mM DTT, 0.1 mM EGTA, 1.0 μM Microcystin-LR, 0.1 mM ATP, 10 mM MgCl2, 333 μg/ml BSA and 0.1 mM EDTA). The reaction was incubated at 22° C. for 4 hours. Aliquots were flash frozen in liquid nitrogen.
(§2) Activated AKT isoforms and pleckstrin homology domain deletion constructs were assayed utilizing a GSK-derived biotinylated peptide substrate. The extent of peptide phosphorylation was determined by Homogeneous Time Resolved Fluorescence […] using a lanthanide chelate (Lance)-coupled monoclonal antibody specific for the phosphopeptide in combination with a streptavidin-linked allophycocyanin (SA-APC) fluorophore which will bind to the biotin moiety on the peptide. […]
(§3) The reaction is assembled by adding 16 μL of the ATP/MgCl2 working solution to the appropriate wells of a 96-well microtiter plate. […] The stopped reactions were incubated at room temperature for at least 30 min and then read on the Discovery instrument. […]

Assay [3] has as its target T3, Human Akt2 (Homo sapiens, UniProt P31751).
T3 construct: a middle T tag was added to the 5′ end of the full length Akt2 using the PCR primer; biotin tag (from pS2neo vector); made in house; host or cells: Drosophila S2 cells
Kind of assay: Akt kinase assay, GSK3 peptide substrate, Akt2. The note with it: activated full length Akt2, GSK3 peptide substrate. The method, then: as §1, §2, §3

Assay [4] addresses T4, ΔPH-Akt1 (Homo sapiens, UniProt P31749).
T4 construct: PCR deletion mutagenesis was done using the full length Akt1 gene in the pS2neo vector as template; biotin tag (from pS2neo vector); made in house; host or cells: Drosophila S2 cells
Kind of assay: Akt kinase assay, GSK3 peptide substrate, Akt1 delta PH. The note with it: pleckstrin homology domain deleted Akt1, GSK3 peptide substrate.

For assay [5], the target named is T5, Human Akt1 (Homo sapiens, UniProt P31749).
T5 construct: a middle T tag was added to the 5′ end of the full length Akt1 gene; biotin tag (from pS2neo vector); made in house; host or cells: Drosophila S2 cells
T5 sequence (P31749 whole entry): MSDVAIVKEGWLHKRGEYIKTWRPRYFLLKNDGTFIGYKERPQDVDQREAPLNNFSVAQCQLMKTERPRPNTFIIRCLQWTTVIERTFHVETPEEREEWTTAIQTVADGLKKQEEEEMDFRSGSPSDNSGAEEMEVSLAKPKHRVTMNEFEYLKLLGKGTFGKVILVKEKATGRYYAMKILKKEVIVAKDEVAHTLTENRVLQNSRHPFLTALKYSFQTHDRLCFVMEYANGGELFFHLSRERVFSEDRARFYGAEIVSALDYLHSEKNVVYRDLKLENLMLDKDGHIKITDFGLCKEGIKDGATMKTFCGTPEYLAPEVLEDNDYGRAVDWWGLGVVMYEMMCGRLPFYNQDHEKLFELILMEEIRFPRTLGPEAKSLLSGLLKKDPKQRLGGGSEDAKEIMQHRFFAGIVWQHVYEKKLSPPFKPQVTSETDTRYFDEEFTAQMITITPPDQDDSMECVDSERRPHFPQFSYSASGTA
In words: Akt kinase assay, GSK3 peptide substrate, Akt1. The note with it: activated full length Akt1, GSK3 peptide substrate. The method, then:
as §1, §2, §3

Assay [6] has as its system PKC. In words: PKC assay (counter screen). The following applies: Myelin basic protein substrate; read-out: Counter screens IC50 (μM) PKC. The method, then: Each PKC assay consists of the following components:
The assays were assembled in 96 deep-well assay plates. Inhibitor or vehicle (10 μl) was added to 5.0 μl of ^33P-ATP. Reactions were initiated with the addition of the PKC/Myelin Basic Protein working solution and mixing. Reactions were incubated at 30° C. for 20 min. The reactions were stopped by adding 50 μl of 100 mM EDTA and 100 mM sodium pyrophosphate and mixing. Phosphorylated Mylein Basic Protein was collected on PVDF membranes in 96 well filter plates and quantitated by scintillation counting.

Assay [7] concerns the target T6, PKA catalytic subunit (Bos taurus, UniProt P00517).
T6 construct: purchased UBI (Upstate Biotechnology, Inc.) 14-114
In words: PKA assay (counter screen). The following applies: Kemptide substrate; read-out: Counter screens IC50 (μM) PKA. The method, then: The reactions were stopped by adding 50 μl of 100 mM EDTA and 100 mM sodium pyrophosphate and mixing.
After the final wash, the filters were allowed to air dry.
In general terms: The purpose of a counterscreen is to sort out artefacts and off-target activity.

T4 sequence (P31749 with tags, fused parts or gaps): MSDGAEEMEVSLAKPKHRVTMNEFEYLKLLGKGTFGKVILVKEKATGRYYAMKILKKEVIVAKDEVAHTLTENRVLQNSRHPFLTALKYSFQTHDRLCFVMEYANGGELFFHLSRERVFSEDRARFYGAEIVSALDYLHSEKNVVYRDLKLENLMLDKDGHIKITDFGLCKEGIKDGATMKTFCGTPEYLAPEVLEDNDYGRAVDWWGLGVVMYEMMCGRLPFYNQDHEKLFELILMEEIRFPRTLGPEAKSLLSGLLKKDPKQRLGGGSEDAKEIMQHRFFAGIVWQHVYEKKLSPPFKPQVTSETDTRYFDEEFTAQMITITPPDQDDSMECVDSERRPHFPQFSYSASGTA
T3 sequence (P31751 whole entry): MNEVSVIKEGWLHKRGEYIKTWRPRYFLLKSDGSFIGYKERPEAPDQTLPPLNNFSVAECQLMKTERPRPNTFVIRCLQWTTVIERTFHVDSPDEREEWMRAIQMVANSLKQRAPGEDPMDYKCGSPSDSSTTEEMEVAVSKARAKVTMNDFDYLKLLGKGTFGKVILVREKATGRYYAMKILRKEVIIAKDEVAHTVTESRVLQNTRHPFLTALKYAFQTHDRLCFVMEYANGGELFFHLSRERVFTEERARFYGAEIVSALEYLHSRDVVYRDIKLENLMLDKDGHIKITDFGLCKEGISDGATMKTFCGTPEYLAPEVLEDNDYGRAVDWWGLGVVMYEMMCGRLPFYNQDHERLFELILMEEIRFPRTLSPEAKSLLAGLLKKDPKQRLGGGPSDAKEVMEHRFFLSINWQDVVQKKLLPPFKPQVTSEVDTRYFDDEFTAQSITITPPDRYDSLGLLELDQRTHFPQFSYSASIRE
T1 sequence (P31751 with tags, fused parts or gaps): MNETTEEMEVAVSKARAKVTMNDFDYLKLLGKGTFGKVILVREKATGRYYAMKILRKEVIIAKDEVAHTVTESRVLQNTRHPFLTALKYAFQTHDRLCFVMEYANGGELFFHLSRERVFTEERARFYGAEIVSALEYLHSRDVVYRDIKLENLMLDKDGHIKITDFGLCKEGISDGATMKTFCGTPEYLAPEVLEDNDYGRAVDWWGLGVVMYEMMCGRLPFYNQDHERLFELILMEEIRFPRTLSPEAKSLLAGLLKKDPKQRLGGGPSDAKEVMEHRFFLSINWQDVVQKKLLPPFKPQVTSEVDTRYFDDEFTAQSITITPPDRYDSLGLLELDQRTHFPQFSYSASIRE

By IC50 is commonly meant the concentration that inhibits the measured activity by half. With `CN(C)CC(C)(C)CNc1nn2c(-c3ccccc3)nnc2cc1C1CCC1` [Compound 1, N′-(7-Cyclobutyl-3-phenyl-[1,2,4]triazolo[4,3-b]pyridazin-6-yl)-2,2,N,N-tetramethyl-propane-1,3-diamine], the IC50 in assay [1] is more than 100 µM.
Consider `OCCOc1nn2c(-c3ccccc3)nnc2cc1-c1ccccc1` [Compound 8, 6-(2-Hydroxyethyl)oxy-3,7-diphenyl-[1,2,4]triazolo[4,3-b]pyridazine], for which the IC50 in assay [2], in assay [3] and in assay [4] was more than 50 µM in each case.
With `COc1cc(-c2[nH]c(C3CCCN3C)nc2-c2ccncc2)ccc1Cl` (stereo not shown) [Compound 19-11, 1-methyl-2-[5-(4-chloro-3-methoxyphenyl)-4-pyridin-4-yl-1H-imidazol-2-yl]-pyrrolidine], the IC50 is 1.4 µM in assay [2]; 51.7 µM in assay [5]; more than 50 µM in assay [3]; 0.65 µM in assay [6]; more than 50 µM in assay [4]; 0.076 µM in assay [7].
